From patent US20050250837A1, “Use of C-Raf inhibitors for the treatment of neurodegenerative diseases” (priority 2002, published 2005)

How the values were obtained:
[1] = target: C-Raf (Homo sapiens, UniProt P04049); experiment: In vitro kinase assay, purified kinase (Upstate Kinase Profiling); type: biochemical
Method: In general, in vitro kinase assays were performed using purified kinase and synthetic substrates under standard conditions using the Kinase Profiling service of Upstate Biotechnology. Briefly, for each assay 5-10 mU of purified kinase was used. […] Kinase activity was quantified by measuring ^33P incorporation by spotting an aliquot on P30 filters, washing in 50 mM phosphoric acid and scintillation counting. The buffer composition for C-Raf, JNK1, JNK2, JNK3, MEK1, MKK6, MKK7 was 50 mM Tris pH7.5, 0.1 mM EGTA, 10 mM Mg acetate and [γ-^33P-ATP]. The peptide substrates used were as follows: For C-Raf, 0.66 mg/ml MBP; for cdks, 0.1 mg/ml histone H1; for JNKs, 3 uM ATF2; for MEK1, 1 uM MAPK2; for MKK6, 1 uM of SAPK2a and for MKK7, 2 uM JNK1α.

[2] = tested on: cerebellar granule neurons; experiment: LK-induced apoptosis of cultured cerebellar granule neurons (MTT viability); type: cell-based, rat
Method: Cultured cerebellar granule neurons undergo apoptosis when switched from HK to medium containing LK (D'Mello et al., 1993). […] Neuronal cultures were switched to medium containing LK, or LK medium containing different doses of GW5074. Cell viability was quantified 24 hours later. Control cultures received HK medium. […] Protection against LK-induced apoptosis is maximal at 1 uM.
Granule neuron cultures were obtained from dissociated cerebella of 7-8 day old rats as described previously (D'Mello et al., 1993). Cells were plated in Basal Eagle's Medium with Earles salts (BME) supplemented with 10% fetal bovine serum (FBS), 25 mM KCl, 2 mM glutamine (Gibco-BRL), and 100 ug/ml gentamycin on dishes coated with poly-L-lys ine in 24-well dishes at a density 1.0×10^6 cells/well, 1.2×10^7 cells/60 mm dish, or 3.0×10^7 cells/100 mm dish. Cytosine arabinofuranoside (10 uM) was added to the culture medium 18-22 hours after plating to prevent replication of non-neuronal cells. Cultures were maintained for 6-7 days prior to experimental treatments. For this, the cells were rinsed once and then maintained in low K^+ medium (serum-free BME medium, 5 mM KCl) or high K^+ medium (serum-free BME medium, supplemented with 20 mM KCl). When used to treat cultures, GW5074 was added at the time when cells were switched to LK medium. Treatment of cultures with pharmacological inhibitors was initiated 15 min prior to rinsing and was maintained through the subsequent incubation in LK or HK medium unless specified otherwise. For MPP+ and methylmercury treatments, 7-8 day old cultures were switched to HK medium containing 200 uM MPP+ or 0.5 uM methylmercury. Viability was assayed 24 hours later.
Neuronal survival was quantified by the MTT assay as previously described (Koulich et al., 2001). Briefly, the tetrazolium salt MTT [3-(4,5-dimethyl-2-thiazolyl)-2,5-diphenyl-2H tetrazolium bromide] was added to the cultures at a final concentration of 1 mg/ml, and incubation of the culture was continued in the CO2 incubator for a further 30 min at 37° C. The assay was stopped by adding lysis buffer [20% SDS in 50% N,N-dimethyl formamide, pH 4.7]. The absorbance was measured specrophotometrically at 570 nm after an overnight incubation at room temperature. The absorbance of a well without cells was used as background and subtracted. Results obtained using the MTT assays were confirmed using the fluorescein-diacetate method for quantification of cell viability, as previously described (D'Mello et al., 1993). Data are presented as mean+/−standard deviation. Statistical analysis was performed using ANOVA and Student-Neuman-Keuls' test.

[3] = tested on: cerebellar granule neurons; experiment: Apoptosis of neurons transfected with dominant-negative B-Raf or LacZ in LK plus GW5074; type: cell-based, rat; settings: LK + 1 uM GW5074, 24 hours
Method: A dominant-negative […] expression vector, pSRa GST B-Raf S728A (full length human B-Raf with Serine to Alanine mutation at position 728) was gifted to us by Dr. Angus M. MacNicol, University of Arkansas for Medical Sciences, Little Rock, Ark. Neuronal cultures were transfected with CMV-LacZ or the dominant-negative B-Raf construct using the calcium phosphate method 5 days after plating of the cultures. […] The proportion of transfected neurons that were apoptotic was quantified 24 hours later.

[4] = tested on: c-jun; experiment: c-jun phosphorylation (Ser63) and total c-jun, Western blot; type: cell-based, rat; settings: LK + 1 uM GW5074, 1 and 3 hours
Method: In granule neurons, phosphorylation of c-jun occurs within 1 hour of LK treatment (Ham et al., 1995; Watson et al. 1998). […] The same blot was reprobed with an antibody against total c-jun (lower panel).
For whole-cell lysates, the culture medium was discarded, the neurons washed twice with ice-cold phosphate-buffered saline (PBS), and lysed in lysis buffer (1% Triton, 20 mM Tris-HCl (pH 7.5), 150 mM NaCl, 1 mM Na2EDTA, 1 mM EGTA, 2.5 mM sodium pyrophosphate, 1 mM beta-glycerophosphate, 1 mM Na3VO4, 1 μg/ml leupeptin and 1× protease inhibitor mixture). Protein concentrations were measured using a Bradford protein assay kit (Bio-Rad), and equivalent amounts of protein were mixed with 6×SDS-PAGE sample buffer. Following heating at 95° C. for 5 min, proteins were subjected to SDS-polyacrylamide gel electrophoresis and transferred electrophoretically to polyvinylidene difluoride membrane (PVDF; Bio Rad). After staining with Ponceau S to verify uniformity of protein loads/transfer, the membranes were analyzed for immunoreactivity. Incubation with primary antibodies was performed overnight at 4° C. and with secondary antibodies for 1 h at room temperature. Immunoreactivity was developed by enhanced chemiluminescence (ECL; Amersham) and visualized by autoradiography. All antibodies were from Cell Signaling.

[5] = target: p38 MAP kinase (Homo sapiens, UniProt Q16539); settings: Lackey et al., 2000; cited from earlier work
Sequence of p38 MAP kinase (Q16539 whole entry): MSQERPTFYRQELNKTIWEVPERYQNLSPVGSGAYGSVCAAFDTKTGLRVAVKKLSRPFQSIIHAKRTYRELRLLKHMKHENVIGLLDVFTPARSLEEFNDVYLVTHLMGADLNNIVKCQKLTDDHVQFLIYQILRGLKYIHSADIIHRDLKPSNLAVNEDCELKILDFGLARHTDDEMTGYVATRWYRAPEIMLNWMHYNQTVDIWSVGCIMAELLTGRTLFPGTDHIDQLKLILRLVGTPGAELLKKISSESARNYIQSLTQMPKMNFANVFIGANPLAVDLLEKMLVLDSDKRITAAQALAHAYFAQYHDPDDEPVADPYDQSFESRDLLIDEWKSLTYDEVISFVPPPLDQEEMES

[6] = tested on: NF-κB; experiment: NF-κB DNA-binding activity, gel mobility shift assay; type: cell-based, rat; settings: LK + 1 uM GW5074, 6 hours
Method: Another molecule known to be important for neuronal survival is NF-κB. Although the precise mechanism has not been elucidated, the Raf is known to activate NF-κB in normeuronal cells via a MEK-ERK-independent mechanism (Foo and Nolan, 1999; Pearson et al., 2000). […] Viability was quantified 24 hours later and expressed as percentage of viability in HK.
One potential mediator of MEK-ERK-independent B-Raf signaling is NF-κB.
Nuclei from neuronal cultures were resuspended in buffer containing 20 mM HEPES pH 7.6, 50 mM KCl, 300 mM NaCl, 0.1 mM EDTA, 1 mM DTT, 0.1 mM PMSF, 10% glycerol, 1× protease inhibitor cocktail and extracted on ice for 30 min, followed by micro-centrifugation at 14,000 rpm for 10 min. The supernatants were collected as nuclear extracts. Concentrations of these nuclear extracts were determined by the Bradford method using reagents from Bio-Rad. Ten μg of each nuclear extract sample was incubated with 0.1 pmol of ^32P-labeled double-stranded KB binding oligonucleotide (5′-[…]-3′) identified as SEQ ID NO:1, or SP1 binding oligonucleotide (5′-[…]-3′) identified as SEQ ID NO:2, in buffer containing 1 μg of poly (d1-dC), 1 μg of BSA, 10 mM HEPES pH7.6, 0.5 mM DTT, 0.1 mM EDTA, 60 mM KCl, 0.2 mM PMSF, 5 mM MgCl2, and 12% glycerol at room temperature for 30 min. Samples were analyzed by 5% native polyacrylamide gel electrophoresis (PAGE) followed by autoradiography.

[7] = tested on: GSK3β; experiment: GSK3β phosphorylation in neuronal cultures, Western blot; type: cell-based, rat; settings: LK + 1 uM GW5074

Sequence of C-Raf (P04049 whole entry, species assumed): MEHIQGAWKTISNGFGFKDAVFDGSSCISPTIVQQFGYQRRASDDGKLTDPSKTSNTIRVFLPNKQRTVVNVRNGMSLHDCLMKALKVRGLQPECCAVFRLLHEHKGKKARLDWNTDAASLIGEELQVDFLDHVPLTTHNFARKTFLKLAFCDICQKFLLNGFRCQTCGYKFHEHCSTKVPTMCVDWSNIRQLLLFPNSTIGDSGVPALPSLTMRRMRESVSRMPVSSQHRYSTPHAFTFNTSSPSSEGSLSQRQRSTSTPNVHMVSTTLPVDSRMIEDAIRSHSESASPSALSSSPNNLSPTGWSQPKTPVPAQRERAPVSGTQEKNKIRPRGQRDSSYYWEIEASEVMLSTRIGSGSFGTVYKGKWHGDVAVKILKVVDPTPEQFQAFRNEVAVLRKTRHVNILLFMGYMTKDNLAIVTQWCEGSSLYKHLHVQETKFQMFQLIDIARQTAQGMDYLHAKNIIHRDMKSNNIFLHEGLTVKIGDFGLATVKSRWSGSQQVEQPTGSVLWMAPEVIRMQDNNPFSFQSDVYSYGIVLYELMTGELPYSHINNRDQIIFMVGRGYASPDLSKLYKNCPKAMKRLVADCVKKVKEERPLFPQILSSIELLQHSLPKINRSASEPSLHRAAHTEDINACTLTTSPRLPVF

O=C1Nc2ccc(I)cc2C1=Cc1cc(Br)c(O)c(Br)c1 [GW5074, 5-Iodo-3-[(3,5-dibromo-4-hydroxyphenyl)methylene]-2-indolinone]
activity at 1 µM [1]: 3%
neuroprotection against LK-induced apoptosis ([2]; 5 uM and 10 uM): Neuroprotection by GW5074 is also observed
protection against LK-induced apoptosis ([2]; LK + 1 uM GW5074, 24 hours): prevents LK-induced apoptosis
concentration of maximal protection against LK-induced apoptosis ([2]; viability 24 hours after switch to LK): 1 µM
death of neurons ([3]; LacZ control): less than 10%
death of infected neurons ([3]; dominant-negative B-Raf, data not shown): 80%
LK-induced c-jun phosphorylation and synthesis [4]: prevents LK-induced c-jun phosphorylation and its increased synthesis
effect on activity of p38 MAP kinase [5]: no effect
NF-κB binding activity in LK [6]: downregulation of NF-κB binding activity is prevented
activation of GSK3β after switch to LK [7]: prevents the activation of GSK3
